Data set [1] concerns Human immunodeficiency virus 1. Briefly: Antiviral activity against HIV1. The data set is classed as functional, organism-based.
A short description of data set [2]: Cytotoxicity against African green monkey Vero cells. Particulars: chlorocebus sabaeus. Format: toxicity, cell-based.
The subject of another data set is Vero. Put plainly: Cytotoxicity against African green monkey Vero cells at 300 uM. Format: toxicity, cell-based. The settings on record: chlorocebus sabaeus.
Data set [3] can be described thus: Ratio CC50 for cytotoxicity against African green monkey Vero cells over IC50 for antitrypanosomal activity against […]. Format: toxicity, cell-based. The settings on record: read-out: Ratio CC50/IC50.
Data set [4] is described as follows: Antioxidant activity assessed as ABTS radical scavenging activity. The data set is classed as functional.
The nature of data set [5]: Antioxidant activity assessed as H2O2 radical scavenging activity. The data set is classed as functional. Particulars: read-out: IC50.
Data set [6] is described as follows: Antioxidant activity assessed as DPPH radical scavenging activity. The data set is classed as functional. The settings on record: read-out: IC50. (DPPH is a stable violet radical that fades when it is reduced.)
A short description of data set [7]: Antioxidant activity assessed as Ferric ion reducing activity by FRAP assay. The data set is classed as functional.
Another data set addresses T1, Alpha amylase (Homo sapiens, UniProt P0DUB6).
T1 sequence (P0DUB6 whole entry): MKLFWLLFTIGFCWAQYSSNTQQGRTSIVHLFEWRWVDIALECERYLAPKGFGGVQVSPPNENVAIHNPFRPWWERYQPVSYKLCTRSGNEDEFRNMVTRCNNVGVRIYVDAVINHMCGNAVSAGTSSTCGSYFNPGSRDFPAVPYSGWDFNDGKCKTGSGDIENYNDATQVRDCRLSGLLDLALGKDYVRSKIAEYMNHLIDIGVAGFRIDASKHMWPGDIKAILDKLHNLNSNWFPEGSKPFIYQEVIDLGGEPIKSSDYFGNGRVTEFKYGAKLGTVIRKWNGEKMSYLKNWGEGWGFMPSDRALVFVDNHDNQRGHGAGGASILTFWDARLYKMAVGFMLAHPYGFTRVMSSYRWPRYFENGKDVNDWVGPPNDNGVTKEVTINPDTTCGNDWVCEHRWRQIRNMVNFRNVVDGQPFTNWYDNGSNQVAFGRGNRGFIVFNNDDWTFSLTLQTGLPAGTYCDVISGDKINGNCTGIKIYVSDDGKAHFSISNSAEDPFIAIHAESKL
Briefly: Inhibition of alpha-amylase (unknown origin).

For a further data set, the system named is Trichomonas vaginalis. Briefly: Antiprotozoal activity against Trichomonas vaginalis at 10 ug/ml measured at 48 hrs. The settings on record: dose 10 µg/ml. The data set is classed as functional.
The subject of the next data set is Toxoplasma gondii. Briefly: Anti-tachyzoite activity against Toxoplasma gondii at 100 uM. The data set is classed as functional, type III.
In data set [8] the test system is Candida albicans. Put plainly: Antifungal activity against Candida albicans assessed as diameter zone of inhibition. The data set is classed as functional.
A further data set deals with Candida parapsilosis. Briefly: Antifungal activity against Candida parapsilosis. Format: functional. The settings on record: Lodderomyces parapsilosis.
Data set [9] relates to Candida. Put plainly: Antifungal activity against Candida species isolate 3. Format: functional.
Another data set relates to Pichia kudriavzevii. Briefly: Antifungal activity against Candida krusei. Format: functional.
The test system of data set [10] is Mycobacterium tuberculosis. Put plainly: Antimycobacterial activity against Mycobacterium tuberculosis at […]. Format: functional. The settings on record: dose 12.5 µg/ml.
The next data set has as its system Candida tropicalis. Briefly: Antifungal activity against Candida tropicalis. The data set is classed as functional.
The test system of the next data set is Nakaseomyces glabratus. Put plainly: Antifungal activity against Candida glabrata. Format: functional.
The next data set relates to Escherichia coli. Put plainly: Antibacterial activity against Escherichia coli. Format: functional.
Data set [11] concerns Candida. Briefly: Antifungal activity against Candida species isolate 1. Format: functional.
For data set [12], the system named is Candida albicans. Briefly: Antifungal activity against Candida albicans. Format: functional.
Data set [13] relates to Candida. Put plainly: Antifungal activity against Candida species isolate 2. The data set is classed as functional.
For data set [14], the system named is RAW264.7. Briefly: Anti-inflammatory activity in mouse RAW264.7 cells assessed as inhibition of LPS-induced NO production at 10 uM after 24 hrs by Griess reagent-based assay. The data set is classed as functional. Set-up: scale not given: the % may be the effect or the level left. On the technique in general: Nitrite, measured by Griess reagent, commonly stands in for NO production.

The subject of the next data set is Mus musculus. Put plainly: Antiinflammatory activity against mouse assessed as reduction in carragenan-induced paw edema at 25 mg/kg,po treated 1 hr prior to carrageenan challenge. Format: functional. Set-up: scale not given: the % may be the effect or the level left.
Data set [15] has as its system RAW264.7. Put plainly: Anti-inflammatory activity in mouse RAW264.7 cells assessed as inhibition of LPS-induced iNOS expression at 30 uM. Format: functional. Further details: scale not given: the % may be the effect or the level left.
The next data set has as its system Rattus norvegicus. Put plainly: Ulcerogenic activity in male albino rat assessed as ulceration at 25 mg/kg, po. Format: functional.
In data set [16] the test system is RAW264.7. Put plainly: Anti-inflammatory activity in mouse RAW264.7 cells assessed as inhibition of LPS-induced COX-2 expression at 15 uM. The data set is classed as functional. Set-up: scale not given: the % may be the effect or the level left.
Data set [17] in a line: Inhibition of IgE-mediated passive cutaneous anaphylaxis in rat when administered orally. Particulars: route po. Format: functional.
Data set [18] can be described thus: Inhibition of IgE-mediated passive cutaneous anaphylaxis in rat when administered intravenously. Format: functional. The settings on record: route iv.
The next data set concerns Hepatitis C virus. Put plainly: Antiviral activity against HCV. Format: functional, organism-based, Hepacivirus hominis.
A short description of data set [19]: Inhibition of lipid peroxidation at 50 uM by measuring MDA concentration. Format: functional.
Data set [20] is described as follows: Inhibition of lipid peroxidation at 100 uM by measuring MDA concentration. Format: functional.
A short description of data set [21]: Antioxidant activity assessed as DPPH radical scavenging activity at 1 uM. Format: functional.
Data set [22] can be described thus: Antioxidant activity assessed as DPPH radical scavenging activity at 5 uM. The data set is classed as functional.
Data set [23] can be described thus: Inhibition of ALR2 (unknown origin). Further details: species or system Homo sapiens.
Data set [24] in a line: Inhibition of ALR1 (unknown origin). Further details: species or system Homo sapiens.
Data set [25] can be described thus: Antioxidant activity assessed as DPPH radical scavenging activity at 10 uM. Format: functional.

The structures appear in SMILES notation. Values after ≈ are worked out from the molar mass of the structure shown. Bounds are passed on as bounds.

The term EC50 denotes the midpoint of the concentration-response curve. Take `O=C1CN(S(=O)(=O)c2c(Cl)cccc2Cl)c2cc(Cl)ccc2N1`: it took 1.09 µM to reach a half-maximal effect in [1] (EC50).
As a reminder, the CC50 is the concentration at which the toxic effect on the cells reaches its halfway point. For the molecule `O=C1CN(CCCN2CCCCC2)c2ccc([N+](=O)[O-])cc2N1`, the CC50 in data set [2] was > 300 µM. This molecule also had an Activity with Vero of 3.26%. Moreover, the selectivity ratio in [3] is > 10.
As usually defined, the IC50 is the concentration that gives 50% inhibition. Regarding `Cc1ccc(NC(=O)Cn2c(=O)c(C)nc3ccccc32)c([N+](=O)[O-])c1`, the IC50 turned out to be 330 µM in data set [4]; 5.06 µM in [5]; 104 µM in data set [6]; 299 µM in [7]; 199.7 µM against Alpha amylase.
For `O=C1CN(CCCCCN2CCCCCC2)c2ccc([N+](=O)[O-])cc2N1`, the Activity came out at 2.35% in the data set with Trichomonas vaginalis and 88% with Toxoplasma gondii.
In the case of `CC(C)=NNc1nc2ccccc2[nH]c1=O`, the “diameter of the inhibition zone (DIZ)” value in the data set with Candida albicans [8] is 31 mm.
One may read the MIC as the lowest concentration that inhibits growth of the organism. Regarding `O=c1[nH]c2cc([N+](=O)[O-])ccc2nc1CBr`, the minimal inhibitory concentration (MIC) in the data set with Candida parapsilosis came to 15.6 µg/mL (≈ 54.9 µM); in the data set on Candida [9], 15.6 µg/mL (≈ 54.9 µM); with Pichia kudriavzevii, 62.5 µg/mL (≈ 220 µM); with Candida tropicalis it was 31.2 µg/mL (≈ 110 µM); against Nakaseomyces glabratus it was 15.6 µg/mL (≈ 54.9 µM); against Escherichia coli, 125 µg/mL (≈ 440 µM). In addition, the MIC was determined as 15.6 µg/mL (≈ 54.9 µM) in the data set with Candida [11], 8 µg/mL (≈ 28.2 µM) in the data set on Candida albicans [12] and 31.2 µg/mL (≈ 110 µM) against Candida [13]. This molecule also gave an Activity in data set [10] of 15%.
In the case of `COc1cc(Cn2c(=O)c3nnc(C(N)=O)n3c3ccccc32)cc(OC)c1OC`, the Activity stood at 38.82% in the data set with RAW264.7 [14]; 50.83% with Mus musculus; 39.89% in the data set on RAW264.7 [15]; 20% with Rattus norvegicus; 53.442% in the data set with RAW264.7 [16].
As a reminder, the ED50 is the midpoint of the dose-response relation. As for `CCCn1c(=O)c2cc(-c3nnn[nH]3)cn2c2ccccc21`, the 50% effective dose (ED50) in data set [17] was 0.44 mg/kg; in data set [18], 0.011 mg/kg.
The molecule `CCC(CC)N(C)c1cc2ncc(=O)[nH]c2cc1Nc1nc(-c2ccccc2)cs1` had a 50% effective concentration (EC50) in the data set with Hepatitis C virus of 1.27 µM.
A word on the inhibition: it is the drop in the measured response relative to a control, in per cent. With `O=C(Cn1c(=O)c(/C=C/c2ccc(O)c(O)c2)nc2ccccc21)NS(=O)(=O)C(F)(F)F`, the inhibition in [19] is 39%; in [20], 73.5%. Moreover, the Activity in data set [21] came to 11%; in data set [22], 51.9%; in data set [25], 82.1%. Besides, the half-maximal inhibitory concentration (IC50) in data set [23] was determined as 0.1 µM; in [24], 9.16 µM.

Source of the values: ChEMBL document CHEMBL5113380, “Functionalized quinoxalinones as privileged structures with broad-ranging pharmacological activities” (Eur J Med Chem, 2022).
